{"source": "patent US20100047173A1", "about": "“Methods for Using Optical Agents” (priority 2006, published 2010)", "key": {"[1]": {"assay": "In vivo fluorescence time dependence at the ear after ICG bolus (blood clearance by the liver), normal vs partially hepatectomized rats", "set-up": "species or system rat", "method": "ICG in powdered form was obtained from Sigma (St. Louis, Mo.). Solutions were made by diluting the appropriate amount of ICG in 10 mL of distilled water. Concentrations less than 1 mM were made by serial dilution of a 1 mM stock solution. For ICG fluorescence detection, a nominal 780 nm collimated solid state laser source was employed (LaserMax Inc. model No. LAS-300-780-5). The laser source was directed into the end of a 3.2 mm diameter glass fiber optic bundle (Oriel No. 77526). The other end of this laser delivery bundle was placed approximately 1 cm from the rat ear at an approximate 45° angle. A second similar fiber optic bundle for use as the fluorescence detection conduit was placed approximately 1 cm from the ear at an approximate 30° angle. The exit end of the detection fiber bundle was positioned at the focal length of a 20 mm focal length lens. […] A digital voltmeter monitored the output signal. […]\nFemale Fischer 344 rats weighing 173-195 g were used. […] The dye was subsequently administered via the indwelling catheter, and the clearance of the agent monitored. […]\nTo verify that the fluorescence decay curves were related to liver function, and to assess this methodology's feasibility to determine impaired liver function, the following experiment was done. […] A measurement of the time dependence of fluorescence at the ear pre- and post-bolus injection of the ICG solution was measured next. […]"}, "[2]": {"assay": "Ex-vivo continuous wave fluorescence imaging of caecum and lower large intestine after IV ICG", "type": "in vivo", "details": "rat, post-IV administration of aqueous ICG solution, 780 nm excitation, 830 nm detection", "method": "ICG in powdered form was obtained from Sigma (St. Louis, Mo.). Solutions were made by diluting the appropriate amount of ICG in 10 mL of distilled water. Concentrations less than 1 mM were made by serial dilution of a 1 mM stock solution.\nThe animals were anesthetized with rat cocktail (xylazine; ketamine; acepromazine 1.5: 1.5: 0.5) at 0.8 mL/kg via intraperitoneal injection. A 21 gauge butterfly infusion set equipped with a stopcock and two syringes containing heparinized saline was placed into the lateral tail vein of the rat. Patency of the vein was checked prior to administration of the agent via the butterfly apparatus.\nA simple noninvasive in vivo continuous wave fluorescence imaging apparatus was employed as described below. Light from a LaserMax Inc. laser diode of nominal wavelength 780 nm and nominal power of 40 mW was launched into a fiber optic bundle. A defocusing lens in position after the bundle expanded the beam such that most of the rat was illuminated. The laser power at the output of the bundle was approximately one half of the input power. […]\nThe above imaging system may also used to view and quantify ex-vivo organs and tissues. […] Blue is indicative of high fluorescence, and red is indicative of low fluorescence."}, "[3]": {"assay": "Open-surgery fluorescence imaging of the cystic duct after IV fluorescein", "type": "in vivo", "details": "anesthetized pig, approximately 80 minutes post-IV administration of 6 mL of 20 mg/mL fluorescein in PBS", "method": "FIG. 1 depicts green fluorescence from fluorescein traveling through a cystic duct in an anesthetized pig. The image was taken during open surgery, post-IV administration of 6 mL of a 20 mg/mL concentration of fluorescein in PBS.\nThe image was taken during open surgery, approximately 80 minutes post-IV administration of 6 mL of a 20 mg/mL concentration of fluorescein in PBS. The pig weighed about 82 pounds."}}}
{"smiles": "CC1(C)C(/C=C/C=C/C=C/C=C2\\N(CCCCS(=O)(=O)[O-])c3ccc4ccccc4c3C2(C)C)=[N+](CCCCS(=O)(=O)[O-])c2ccc3ccccc3c21.[Na+]", "note": "[ICG]", "values": [{"measurement": "fluorescence decay time, impaired liver function versus normal liver function", "setting": "[1]; partially hepatectomized rats (33%-38% of liver ligated) vs normal rat, single exponential fit", "result": "almost an order of magnitude longer"}, {"measurement": "loss of initial fluorescence signal at the ear", "setting": "[1]; rat, after about 15 minutes post-bolus injection of 500 mL of 1.007 mM ICG solution (FIG. 3)", "result": "approximately 90%"}, {"measurement": "fluorescence of feces in ex-vivo intestine (hepatobiliary excretion)", "setting": "[2]", "result": "feces that fluoresce due to the ICG within"}]}
{"smiles": "O=C1OC2(c3ccc(O)cc3Oc3cc(O)ccc32)c2ccccc21", "note": "[fluorescein]", "values": [{"measurement": "appearance of fluorescence in the cystic duct", "setting": "[3]", "result": "fluorescence from fluorescein traveling through the cystic duct"}]}
